Reference: patent publication US20160017206A1, “METHODS FOR IMMEDIATE SOURING CONTROL IN GASES OR FLUIDS PRODUCED FROM SULFIDOGENIC RESERVOIR SYSTEMS” (THE REGENTS OF THE UNIVERSITY OF CALIFORNIA, priority 2013, published 2016)

Columns and labels:
Format in all cases: cell-based
Desulfovibrio vulgaris = assay: Inhibition of sulfidogenesis (sulfate reduction to sulfide) by D. vulgaris cultures
Protocol: Twelve tubes of basal anaerobic medium containing 15 mM lactate and 15 mM sulfate were inoculated with an active culture of D. vulgaris and incubated for 6 hours at 30° C., until a visible increase in optical density was observed. After six hours, the tubes were further inoculated with A. suillum and 15 mM chlorate prior to incubation overnight at 30° C., as outlined in Table 2.

[1] = test system: marine sediment slurry microcosms; assay: Sulfide inhibition in marine sediment slurry microcosms; conditions: chlorate added with Dechloromarinus strain NSS, incubation over 250 hours
Source text: In the absence of chlorate and Dechloromarinus strain NSS sulfide is readily produced.

A. suillum = assay: Fe(II) oxidation by A. suillum in anoxic culture with nitrate as electron acceptor; conditions: 10 mM Fe(II) as FeCl2, 10 mM acetate as cosubstrate, within 7 days
Protocol: A. suillum readily oxidized (10 mM) Fe(II) in the form of FeCl2 with nitrate as the electron acceptor under strict anaerobic conditions (FIG. 8). With 10 mM acetate as a cosubstrate, more than 70% of the added iron was oxidized within 7 days. No Fe(II) was oxidized in the absence of cells or if the nitrate was omitted (data not shown). Fe(II) oxidation was initiated after complete mineralization of acetate to CO2, and growth was not associated with this metabolism.
When acetate was added as an additional carbon and energy source, cell density increased concomitant with acetate oxidation. Fe(II) oxidation occurred after acetate had been depleted and the culture had reached stationary phase (FIG. 8).

Compound | sulfide production by D. vulgaris relative to control cells incubated without chlorate (Desulfovibrio vulgaris; 15 mM chlorate alone, 24 hours, lactate as electron donor) | sulfide production by D. vulgaris relative to control cells incubated in the absence of A. suillum and chlorate (Desulfovibrio vulgaris; 15 mM chlorate together with A. suillum, 24-hour incubation) | antimicrobial activity against D. vulgaris (Desulfovibrio vulgaris; relatively low concentrations (15 mM)) | time course of sulfidogenesis by D. vulgaris (FIG. 14) (Desulfovibrio vulgaris; treated with A. suillum (PS) and chlorate at 48 hours, relative to untreated control) | sulfide production in marine sediment slurry microcosms (FIG. 12) [1] | added iron oxidized (A. suillum)
[O-][Cl+2]([O-])O [chlorate] | 49% | 17% | has antimicrobial activity against D. vulgaris | immediate inhibition of sulfide production and removal of sulfide from the medium | sulfide inhibition | –
[Cl][Fe][Cl] [FeCl2, Ferrous chloride] | – | – | – | – | – | more than 70%
